# Laboratory results from patent US20250064990A1, “METHODS OF SCREENING FOR VMAT2 INHIBITORS” (Neurocrine Biosciences, Inc., priority 2021, published 2025).
# Where two headings read alike, the source gives them in different places.
# Molecular target: VMAT2 (Homo sapiens, UniProt Q05940)
# Assay: VMAT2 target occupancy of single oral doses of NBI-750142 in healthy adult male subjects, [^18F]AV-133 PET
# Type: in vivo
# Design: from tissue; host or cells: brain (caudate, putamen, midbrain) of living healthy adult male subjects
# Conditions: for [^18F]AV-133 BPND T2 / NBI-750142 T2 Occ: T2 (18 h post dose); for NBI-750142 T1 Occ / [^18F]AV-133 BPND T1: T1 ([…] post dose); for EC50: read-out: EC50 (NBI-750142 plasma concentration vs VMAT2 striatal occupancy) (converted)
# Method: This study was conducted to evaluate the brain penetration and target engagement of VMAT2 after single oral doses of NBI-750142 in healthy subjects. This PET study assessed the engagement of NBI-750142 with VMAT2 in vivo at two time-points after dosing. A sequential-cohort design allowed for the safety, target-occupancy, and available pharmacokinetic (PK) data from each prior cohort to be evaluated before selection of the dose level for the next cohort. A range of NBI-750142 doses (max. 200 mg) were studied to explore the relationship between NBI-750142 plasma concentrations and engagement of VMAT2 in selected brain regions.
# This was a Phase 1 single-center, open-label, single-dose, target occupancy study of NBI-750142 in up to 12 healthy male subjects using [^18F]AV-133 PET imaging. […] A total of 12 subjects completed the study. Subjects enrolled in the study were required to report to the clinical research site for 4 separate occasions, detailed below.
# Two subjects were initially enrolled in each dose cohort. Each subject received one brain structural magnetic resonance imaging (MRI) scan during screening and up to 3 [^18F]AV-133 PET scans (1 baseline and up to 2 follow-up scans after receiving a single dose of NBI-750142). Subjects enrolled in the first cohort received a single dose of 100 mg of NBI-750142 orally on Day 1. PET scans occurred on Day 1 at approximately 1.5 hours post NBI-750142 dose and on Day 2 at approximately 18 hours post NBI-750142 dose. Subjects were then discharged from the study center after all Day 3 procedures and assessments were completed.
# Subjects were administered a single dose of [^18F]AV-133 intravenously over 3 minutes using an infusion pump (approximately 3.33 mL per minute) through a venous catheter followed by a 10 mL saline flush. Dynamic PET imaging of the brain was acquired over 120 min following radiotracer injection on a Siemens Biograph 6 PET/CT camera according to the following protocol: • CT scan of the head • [^18F]AV-133 injection (T=0 min) • Emission scan: 6×30 sec, 4×1 min, 4×2 min, 21×5 min (0-120 min)
# Reconstructed PET imaging data volumes were transferred to the image processing PMOD software package (PMOD Technologies, Zurich, Switzerland) where the images were motion and decay corrected, realigned onto the subject MRI and subsequently normalized into the standard MNI (Montreal Neurological Institute) space where volumes of interest (VOIs) were defined from a template (see e.g., Hammers et al, Adult brain maximum probability map (“Hammersmith atlas”; n30r83) in MNI space. 2008). The subject MRI was segmented into grey matter, white matter, and CSF maps. Average activity concentration (kBq/cc) within each VOI, constrained to grey matter voxels for cortical regions, were determined and time activity curves (TACs) were generated. TACs were extracted from the following VOIs: caudate and putamen (striatum), midbrain, cerebellar and occipital cortices. TACs and were expressed in standard uptake value (SUV) units (g/mL) by normalizing with the weight of the subject and the injected dose. The occipital cortex was used as a reference region to normalize activity in target regions to generate SUVr images. For visualization, standard uptake value ratio (SUVr) images were computed between 60-120 min. Non-displaceable binding potential (BPND), the primary outcome measure, was estimated with noninvasive Logan graphical analysis (NI-LGA, t*=20 min) in caudate, putamen and midbrain using the occipital cortex as the reference region. Percent measured occupancy (OM) of NBI-750142 (drug) by region was computed according to the Equation 3-1 at each of the post-dose timepoints, T1 (1.5 h post dose) and T2 (18 h post dose).
# Post-hoc exploratory analysis applied an Upregulation model (Equation 3-3), in order to account for the apparent ‘negative occupancy’ values observed at T2 (BPND values at T2 were unexpectedly higher than corresponding BPND values at baseline). […]
# [1] = Cohort 4, 60 mg, Subject 1, Midbrain
# [2] = Cohort 4, 60 mg, Subject 1, Putamen
# [3] = Cohort 4, 60 mg, Subject 2, Caudate
# [4] = Cohort 4, 60 mg, Subject 2, Midbrain
# [5] = Cohort 4, 60 mg, Subject 2, Putamen
# [6] = Cohort 5A, 10 mg, Subject 1, Caudate (2nd line so labelled)
# [7] = Cohort 5A, 10 mg, Subject 1, Caudate
# [8] = Cohort 5A, 10 mg, Subject 1, Midbrain
# [9] = Cohort 5A, 10 mg, Subject 2, Caudate (2nd line so labelled)
# [10] = Cohort 5A, 10 mg, Subject 2, Caudate
# [11] = Cohort 5A, 10 mg, Subject 2, Midbrain
# [12] = Cohort 5B, 10 mg, Subject 3, Caudate
# [13] = Cohort 5B, 10 mg, Subject 3, Midbrain
# [14] = Cohort 5B, 10 mg, Subject 3, Putamen
# [15] = Cohort 5B, 10 mg, Subject 4, Caudate
# [16] = Cohort 5B, 10 mg, Subject 4, Midbrain
# [17] = Cohort 5B, 10 mg, Subject 4, Putamen
# [18] = Upregulation model, post hoc exploratory, both T1 and T2 data
# [19] = average of caudate and putamen, 100 mg
# VMAT2, sequence (Q05940 whole entry): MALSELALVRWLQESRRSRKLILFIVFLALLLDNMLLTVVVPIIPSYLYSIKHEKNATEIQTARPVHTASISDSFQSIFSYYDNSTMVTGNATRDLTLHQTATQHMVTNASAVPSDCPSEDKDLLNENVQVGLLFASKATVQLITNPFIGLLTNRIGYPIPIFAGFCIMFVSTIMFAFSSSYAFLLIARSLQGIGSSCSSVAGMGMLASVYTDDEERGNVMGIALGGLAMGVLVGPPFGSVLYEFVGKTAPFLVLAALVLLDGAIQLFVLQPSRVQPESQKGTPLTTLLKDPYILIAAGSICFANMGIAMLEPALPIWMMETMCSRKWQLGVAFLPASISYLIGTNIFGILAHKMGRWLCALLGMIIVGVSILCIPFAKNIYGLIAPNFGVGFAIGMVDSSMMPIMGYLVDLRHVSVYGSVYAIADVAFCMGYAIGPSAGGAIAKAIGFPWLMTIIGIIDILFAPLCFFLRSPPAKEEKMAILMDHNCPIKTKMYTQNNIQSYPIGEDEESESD
smiles,measurement,setting,value
COc1cc2c(cc1OC)[C@H]1CN(C)[C@H](CC(C)(C)C)CN1CC2 [NBI-750142],[^18F]AV-133 BPND T2,"Cohort 4, 60 mg, Subject 1, Caudate",1.69
same,NBI-750142 T1 Occ,[1],55%
same,[^18F]AV-133 BPND T1,[1],0.20
same,NBI-750142 T2 Occ,[1],−1%
same,[^18F]AV-133 BPND T2,[1],0.44
same,NBI-750142 T1 Occ,[2],39%
same,[^18F]AV-133 BPND T1,[2],1.10
same,NBI-750142 T2 Occ,[2],−12%
same,[^18F]AV-133 BPND T2,[2],2.01
same,NBI-750142 T1 Occ,[3],11%
same,[^18F]AV-133 BPND T1,[3],1.26
same,NBI-750142 T2 Occ,[3],−13%
same,[^18F]AV-133 BPND T2,[3],1.61
same,NBI-750142 T1 Occ,[4],27%
same,[^18F]AV-133 BPND T1,[4],0.28
same,NBI-750142 T2 Occ,[4],−12%
same,[^18F]AV-133 BPND T2,[4],0.42
same,NBI-750142 T1 Occ,[5],8%
same,[^18F]AV-133 BPND T1,[5],1.73
same,NBI-750142 T2 Occ,[5],−12%
same,[^18F]AV-133 BPND T2,[5],2.09
same,Occupancy at T2 in striatum,"Cohort 4 at 60 mg, subject 1, 18 h post dose",−10%
same,Occupancy at T2 in striatum,"Cohort 4 at 60 mg, subject 2, 18 h post dose",−12%
same,Occupancy at T2 in striatum,"Cohort 5A at 10 mg, subject 1, 18 h post dose",−3%
same,Occupancy at T2 in striatum,"Cohort 5A at 10 mg, subject 2, 18 h post dose",−4%
same,NBI-750142 T1 Occ,[6],26%
same,[^18F]AV-133 BPND T1,[6],1.76
same,NBI-750142 T2 Occ,[6],−4%
same,[^18F]AV-133 BPND T2,[6],2.48
same,NBI-750142 T1 Occ,[7],27%
same,[^18F]AV-133 BPND T1,[7],1.14
same,NBI-750142 T2 Occ,[7],−2%
same,[^18F]AV-133 BPND T2,[7],1.58
same,NBI-750142 T1 Occ,[8],41%
same,[^18F]AV-133 BPND T1,[8],0.31
same,NBI-750142 T2 Occ,[8],1%
same,[^18F]AV-133 BPND T2,[8],0.52
same,NBI-750142 T1 Occ,[9],9%
same,[^18F]AV-133 BPND T1,[9],2.88
same,NBI-750142 T2 Occ,[9],−6%
same,[^18F]AV-133 BPND T2,[9],3.34
same,NBI-750142 T1 Occ,[10],11%
same,[^18F]AV-133 BPND T1,[10],1.98
same,NBI-750142 T2 Occ,[10],−3%
same,[^18F]AV-133 BPND T2,[10],2.29
same,NBI-750142 T1 Occ,[11],20%
same,[^18F]AV-133 BPND T1,[11],0.43
same,NBI-750142 T2 Occ,[11],−19%
same,[^18F]AV-133 BPND T2,[11],0.65
same,Occupancy at T2 in striatum,"Cohort 5B at 10 mg, subject 3, 18 h post dose",−14%
same,Occupancy at T2 in striatum,"Cohort 5B at 10 mg, subject 4, 18 h post dose",5%
same,NBI-750142 T1 Occ,[12],−2%
same,[^18F]AV-133 BPND T1,[12],2.51
same,NBI-750142 T2 Occ,[12],−14%
same,[^18F]AV-133 BPND T2,[12],2.81
same,NBI-750142 T1 Occ,[13],19%
same,[^18F]AV-133 BPND T1,[13],0.40
same,NBI-750142 T2 Occ,[13],−14%
same,[^18F]AV-133 BPND T2,[13],0.56
same,NBI-750142 T1 Occ,[14],−2%
same,[^18F]AV-133 BPND T1,[14],2.90
same,NBI-750142 T2 Occ,[14],−14%
same,[^18F]AV-133 BPND T2,[14],3.25
same,NBI-750142 T1 Occ,[15],−4%
same,[^18F]AV-133 BPND T1,[15],2.35
same,NBI-750142 T2 Occ,[15],4%
same,[^18F]AV-133 BPND T2,[15],2.16
same,NBI-750142 T1 Occ,[16],0%
same,[^18F]AV-133 BPND T1,[16],0.52
same,NBI-750142 T2 Occ,[16],−2%
same,[^18F]AV-133 BPND T2,[16],0.53
same,NBI-750142 T1 Occ,[17],−3%
same,[^18F]AV-133 BPND T1,[17],3.03
same,NBI-750142 T2 Occ,[17],6%
same,[^18F]AV-133 BPND T2,[17],2.75
same,EC50,"Emax model, T1 occupancy values alone",0.0767 µM
same,EC50 (NBI-750142 plasma concentration vs VMAT2 striatal occupancy),"Emax model, both T1 and T2 occupancy values",0.0352 µg/mL
same,upregulation factor (URF),"Upregulation model, both T1 and T2 data",2.76
same,EC50 (NBI-750142 plasma concentration vs VMAT2 striatal occupancy),[18],0.0063 µg/mL
same,EC50,[18],0.0195 µM
same,[^18F]AV-133 striatal uptake at T2,across all cohorts,"appeared to return to, or slightly exceed, baseline levels"
same,"Occupancy in the striatum at T1, lower end of range","average of caudate and putamen, 10 mg",−4%
same,"Occupancy in the striatum at T1, upper end of range",[19],76%
same,"Occupancy in the striatum at T2, upper end of range",[19],14%
same,"Occupancy in the striatum at T2, lower end of range","average of caudate and putamen, 200 mg",−28%
